Series [1] in a line: Solubility determination in deionized water. The class given is physicochemical. To be noted: for Solubility S: ultrasonication, stepwise addition of water; for Dissolution result: visual observation. As for the experimental part: About 2 mg of each of the various crystalline acidic salts and the compound of formula (I) in free form was precisely weighed out into a 2 mL glass vial, and about 100 μL of deionized water was added each time; the mixture was ultrasonicated, and if the compound was not dissolved, the step of adding deionized water and performing ultrasonication was repeated until the compound was completely dissolved or the concentration was <0.2 mg/mL. The total volume of the water added was recorded, the dissolution behavior and result were observed, and the solubility of each compound was calculated.

Series [2] is described as follows: Hygroscopic behavior test by dynamic vapor sorption (DVS). The class given is physicochemical. The note with it: for Hygroscopic weight gain %: 25° C., DVS. The source says:
The experimental method of characterizing the crystalline acidic salts of the compound of formula (I) using dynamic vapor sorption (DVS) is as follows: a small amount of crystalline acidic salt powder of the compound of formula (I) was placed in a precision sample pan that came with the instrument; after the sample was loaded, the aluminum pan was sent into the instrument for analysis. In the present patent, the instruments used for dynamic vapor sorption were all the DVS Intrinsic model, the experimental parameter was set to using nitrogen as a carrier gas, the constant temperature was set to 25° C., the rate of mass percentage change over a unit of time (dm/dt)=0.01%/min was used as a criterion for determining if an equilibrium is reached, and the program humidity change cycle was set as follows: the initial relative humidity was 0%, the relative humidity was 90% at the end of the cycle, 2 cycles were set, and each 10% R.H. change was a step.
The inventors of the present invention measured the hygroscopic weight gains of each of the various crystalline forms in various relative humidity conditions (hygroscopic weight gain/pre-hygroscopic weight[…]) according to the dynamic vapor sorption method, and assessed the hygroscopicity of the different crystalline compounds.

SMILES strings stand for the structures. Structures can show the parent of a compound that is named as a salt.

Turning to `Cc1nc(NC(=O)N2CCC(C)(C)C2=O)ccc1Oc1ccnc(-c2cnn(C)c2)c1` [Malate crystalline form I, 3,3-dimethyl-N-(6-methyl-5-((2-(1-methyl-1H-pyrazol-4-yl)pyridin-4-yl)oxy)pyridin-2-yl)-2-oxopyrrolidine-1-carboxamide], in series [1], the “Solubility S” value was “S > 20 mg/mL” and the Dissolution result is “Clear solution”.
As to `Cc1nc(NC(=O)N2CCC(C)(C)C2=O)ccc1Oc1ccnc(-c2cnn(C)c2)c1` [Compound in free form, 3,3-dimethyl-N-(6-methyl-5-((2-(1-methyl-1H-pyrazol-4-yl)pyridin-4-yl)oxy)pyridin-2-yl)-2-oxopyrrolidine-1-carboxamide], in series [1], the “Solubility S” value is on record as “S < 1.5 mg/mL” and the Dissolution result is “Not clear”.
Take `Cc1nc(NC(=O)N2CCC(C)(C)C2=O)ccc1Oc1ccnc(-c2cnn(C)c2)c1` [Methanesulfonate crystalline form II, 3,3-dimethyl-N-(6-methyl-5-((2-(1-methyl-1H-pyrazol-4-yl)pyridin-4-yl)oxy)pyridin-2-yl)-2-oxopyrrolidine-1-carboxamide]: the “Solubility S” value in series [1] is “S > 20 mg/mL”. Also, the Dissolution result in series [1] was “Clear solution”. Also, the “Hygroscopic weight gain %” value in series [2] (relative humidity 0.0 %) was 0.00%; in series [2] (relative humidity 10.0 %), 0.11%; in series [2] (relative humidity 20.0 %), 0.18%; in series [2] (relative humidity 30.0 %) it was 0.20%; in series [2] (relative humidity 40.0 %) it was 0.24%; in series [2] (relative humidity 50.0 %), 0.31%. Further, the “Hygroscopic weight gain %” value in series [2] (relative humidity 60.0 %) is 0.88%; in series [2] (relative humidity 70.0 %), 8.93%; in series [2] (relative humidity 80.0 %), 12.44%; in series [2] (relative humidity 90.0 %) it was 23.15%.
Consider `Cc1nc(NC(=O)N2CCC(C)(C)C2=O)ccc1Oc1ccnc(-c2cnn(C)c2)c1` [Fumarate crystalline form I, 3,3-dimethyl-N-(6-methyl-5-((2-(1-methyl-1H-pyrazol-4-yl)pyridin-4-yl)oxy)pyridin-2-yl)-2-oxopyrrolidine-1-carboxamide], for which, in series [1], the “Solubility S” value is “S > 20 mg/mL” and the Dissolution result is “Clear solution”.
Turning to `Cc1nc(NC(=O)N2CCC(C)(C)C2=O)ccc1Oc1ccnc(-c2cnn(C)c2)c1` [Tartrate crystalline form I, 3,3-dimethyl-N-(6-methyl-5-((2-(1-methyl-1H-pyrazol-4-yl)pyridin-4-yl)oxy)pyridin-2-yl)-2-oxopyrrolidine-1-carboxamide], the “Solubility S” value in series [1] was “S > 20 mg/mL”. The Dissolution result in series [1] is on record as “Clear solution”. Further, the “Hygroscopic weight gain %” value in series [2] (relative humidity 0.0 %) worked out at 0.00%; in series [2] (relative humidity 10.0 %), 0.83%; in series [2] (relative humidity 20.0 %), 1.79%; in series [2] (relative humidity 30.0 %), 2.42%; in series [2] (relative humidity 40.0 %) it was 2.88%; in series [2] (relative humidity 50.0 %) it was 3.32%. The “Hygroscopic weight gain %” value is 3.77% in series [2] (relative humidity 60.0 %), 4.44% in series [2] (relative humidity 70.0 %), 5.17% in series [2] (relative humidity 80.0 %) and 10.61% in series [2] (relative humidity 90.0 %).
Regarding `Cc1nc(NC(=O)N2CCC(C)(C)C2=O)ccc1Oc1ccnc(-c2cnn(C)c2)c1` [Phosphate crystalline form I, 3,3-dimethyl-N-(6-methyl-5-((2-(1-methyl-1H-pyrazol-4-yl)pyridin-4-yl)oxy)pyridin-2-yl)-2-oxopyrrolidine-1-carboxamide], the “Solubility S” value in series [1] is given as “S > 20 mg/mL”. In series [1], the Dissolution result is “Clear solution”. In addition, the “Hygroscopic weight gain %” value in series [2] (relative humidity 0.0 %) is 0.02%; in series [2] (relative humidity 10.0 %), 1.19%; in series [2] (relative humidity 20.0 %), 1.86%; in series [2] (relative humidity 30.0 %) it was 2.32%; in series [2] (relative humidity 40.0 %) it was 2.78%; in series [2] (relative humidity 50.0 %), 3.37%. The “Hygroscopic weight gain %” value in series [2] (relative humidity 60.0 %) was determined as 3.97%; in series [2] (relative humidity 70.0 %), 4.66%; in series [2] (relative humidity 80.0 %), 5.46%; in series [2] (relative humidity 90.0 %), 6.383%.
`Cc1nc(NC(=O)N2CCC(C)(C)C2=O)ccc1Oc1ccnc(-c2cnn(C)c2)c1` [Citrate crystalline form I, 3,3-dimethyl-N-(6-methyl-5-((2-(1-methyl-1H-pyrazol-4-yl)pyridin-4-yl)oxy)pyridin-2-yl)-2-oxopyrrolidine-1-carboxamide]: in series [1], the “Solubility S” value was “S > 20 mg/mL” and the Dissolution result is “Clear solution”.
For `Cc1nc(NC(=O)N2CCC(C)(C)C2=O)ccc1Oc1ccnc(-c2cnn(C)c2)c1` [Sulfate crystalline form I, 3,3-dimethyl-N-(6-methyl-5-((2-(1-methyl-1H-pyrazol-4-yl)pyridin-4-yl)oxy)pyridin-2-yl)-2-oxopyrrolidine-1-carboxamide] the same measures were “S > 20 mg/mL” and “Clear solution”.
As for `Cc1nc(NC(=O)N2CCC(C)(C)C2=O)ccc1Oc1ccnc(-c2cnn(C)c2)c1` [Hydrochloride crystalline form I, 3,3-dimethyl-N-(6-methyl-5-((2-(1-methyl-1H-pyrazol-4-yl)pyridin-4-yl)oxy)pyridin-2-yl)-2-oxopyrrolidine-1-carboxamide], in series [1], the “Solubility S” value is given as “S > 20 mg/mL”. Also, the Dissolution result in series [1] is recorded as “Clear solution”. In addition, the hygroscopic weight gain entry in series [2] was “less than 10%”. For the same molecule, the “Hygroscopic weight gain %” value was 0.00% in series [2] (relative humidity 0.0 %); 0.13% in series [2] (relative humidity 10.0 %); 0.24% in series [2] (relative humidity 20.0 %); 0.34% in series [2] (relative humidity 30.0 %); 0.42% in series [2] (relative humidity 40.0 %); 0.52% in series [2] (relative humidity 50.0 %). Further, the “Hygroscopic weight gain %” value in series [2] (relative humidity 60.0 %) was determined as 0.63%; in series [2] (relative humidity 70.0 %), 0.81%; in series [2] (relative humidity 80.0 %) it was 1.37%; in series [2] (relative humidity 90.0 %), 19.40%.

The values are drawn from US20240317710A1, “CRYSTALLINE CSF-1R INHIBITOR ACIDIC SALT, PREPARATION METHOD THEREFOR AND USE THEREOF” (Abbisko Therapeutics Co. Ltd., priority 2021, published 2024).
